The source of these data is patent US9447092B2, “Pharmaceutically active compounds” (CANCER RESEARCH TECHNOLOGY LIMITED, priority 2012, dated 2016).

The test system of data set [1] is SW620 human colon carcinoma xenograft. Particulars: literature (ref 26); cited from earlier work.
Data set [2] in a line: Human liver microsomal stability. Format: in vitro ADME. The following applies: human liver microsomes, after a 30 min incubation. How it is done: Compounds (10 μM) were incubated with mixed gender pooled human liver microsomes (1 mg·mL^−1) protein in the presence of NADPH (1 mM), UDPGA (2.5 mM) and MgCl2 (3 mM) in phosphate buffered saline (10 mM) at 37° C. Incubations were conducted for 0 and 30 minutes. Control incubations were generated by the omission of NADPH and UDPGA from the incubation reaction. The percentage compound remaining was determined after analysis by LCMS.
On the technique in general: Liver microsomes are a subcellular fraction often used to study metabolism.

The target of data set [3] is CYP2C9 (Homo sapiens (Human), UniProt P11712). Description: Inhibition of CYP isozymes in human liver microsomes, CYP2C9.
Data set [4] deals with CYP2A6 (Homo sapiens (Human), UniProt P11509). Nature of the data set: Inhibition of CYP isozymes in human liver microsomes, CYP2A6. Particulars: read-out: Estimated IC50 CYP2A6, probe Coumarin.
The target in data set [5] is T1, hERG (Homo sapiens (Human), UniProt Q12809).
For data set [6], the target named is Aurora-A (Homo sapiens (Human), UniProt O14965). The following applies: read-out: Aurora-A IC50; biochemical assay. How it is done: Aurora kinase assays: Aurora kinase IC50 values were determined as previously described.^26, 36
Data set [7] concerns the target CYP2D6 (Homo sapiens (Human), UniProt P10635). Nature of the data set: Inhibition of CYP isozymes in human liver microsomes, CYP2D6.
For data set [8], the target named is CYP2C19 (Homo sapiens (Human), UniProt P33261). Nature of the data set: Inhibition of CYP isozymes in human liver microsomes, CYP2C19.
The target in data set [9] is CYP3A4 (Homo sapiens (Human), UniProt P08684). Description: Inhibition of CYP isozymes in human liver microsomes, CYP3A4. Particulars: read-out: Estimated IC50 CYP3A4, probe Midazolam.
Data set [10] deals with CYP1A2 (Homo sapiens (Human), UniProt P05177). Nature of the data set: Inhibition of CYP isozymes in human liver microsomes, CYP1A2.
The subject of data set [11] is phosphorylation of STAT5 at Y694. Description: 4-day PK/PD study: STAT5 phosphorylation in MV4-11 xenografts. It is filed as in vivo, mouse. The following applies: 50 and 100 mg/kg oral twice daily, 4 days. How it is done: (§1) Tumour samples were obtained 2 h after the final dose. Total histone H3, total Stat5 and GAPDH were used as loading controls.
Data set [12] addresses FLT3-ITD (Homo sapiens, UniProt P36888). Description: KINOMEScan FLT3-ITD. It is filed as binding. The following applies: 1 μM primary screening. How it is done: (§2) Kinase selectivity profiling: Kinase profiling using the KINOMEScan™ technology and Kd determinations were performed by KINOMEscan, a Division of DiscoveRx Corporation, San Diego, Calif., USA; www.kinomescan.com.

Data set [13] concerns HCT116 human colon carcinoma. Nature of the data set: Cell viability assay, HCT116. It is filed as cell-based. Particulars: HCT-116.
A short description of data set [14]: In vivo full PK in mouse.
The nature of data set [15]: Mouse liver microsomal stability. Format: in vitro ADME. Particulars: mouse liver microsomes, after a 30 min incubation. How it is done:
Compounds (10 μM) were incubated with male CD1 mouse liver microsomes (1 mg·mL^−1) protein in the presence of NADPH (1 mM), UDPGA (2.5 mM) and MgCl2 (3 mM) in phosphate buffered saline (10 mM) at 37° C. Incubations were conducted for 0 and 30 minutes. Control incubations were generated by the omission of NADPH and UDPGA from the incubation reaction. The percentage compound remaining was determined after analysis by LCMS.

The test system of data set [16] is 442-kinase panel (386 non-mutant kinases). Nature of the data set: KINOMEScan kinase selectivity profiling, 442-kinase panel. The following applies: 1 μM; >90% competition. Format: binding. How it is done: as §2
Data set [17] addresses FLT3(D835Y) (Homo sapiens (Human), UniProt P36888, D835Y). Description: KINOMEScan FLT3(D835Y). It is filed as binding. The following applies: 1 μM primary screening. How it is done: as §2
Data set [18] deals with FLT3 (Homo sapiens (Human), UniProt P36888). Nature of the data set: KINOMEScan FLT3. Format: binding. Particulars: 1 μM primary screening. How it is done:
as §2

The target in data set [19] is Aurora-B (Homo sapiens (Human), UniProt Q96GD4). Description: KINOMEScan Aurora-B. It is filed as binding. Particulars: read-out: % control Aurora-B. How it is done: as §2
For data set [20], the target named is FLT3(D835H) (Homo sapiens (Human), UniProt P36888, D835H). Nature of the data set: KINOMEScan FLT3(D835H). Format: binding. The following applies: 1 μM primary screening. How it is done: as §2
A short description of data set [21]: Log D measurement. It is filed as physicochemical. Particulars: pH 7.4, experimentally determined value. How it is done: Physicochemical properties: Log D and pKa measurements were performed by Pharmorphix® Solid State Services, Member of the Sigma-Aldrich Group, Cambridge, UK.
The subject of data set [22] is MV4-11 human tumour xenografts. Nature of the data set: Human tumour xenograft efficacy study (MV4-11). Format: in vivo. An excerpt: Brit J Cancer 102: 1555-1577, 2010.
(In general: A xenograft is tissue or cells of one species grown in another, often human tumour cells in immunodeficient mice.)

For data set [23], the system named is histone H-3 phosphorylation at S10. Nature of the data set: 4-day PK/PD study: histone H-3 phosphorylation in MV4-11 xenografts. Format: in vivo, mouse. The following applies: 50 and 100 mg/kg oral twice daily, 4 days. How it is done:
as §1

Data set [24] addresses T1, hERG. Nature of the data set: hERG inhibition (cell-based electrophysiology, hERG tail current). (The hERG channel carries a current that helps repolarise heart muscle cells.)

pIC50: −log10 of the molar value. Several values for one entry are separate records, joined by “and”; a condition that tells them apart may be missing. Equal entries are not always repeated. Where two headings read alike, the source gives them in different places.

Chain of CYP2A6 (P11509 whole entry): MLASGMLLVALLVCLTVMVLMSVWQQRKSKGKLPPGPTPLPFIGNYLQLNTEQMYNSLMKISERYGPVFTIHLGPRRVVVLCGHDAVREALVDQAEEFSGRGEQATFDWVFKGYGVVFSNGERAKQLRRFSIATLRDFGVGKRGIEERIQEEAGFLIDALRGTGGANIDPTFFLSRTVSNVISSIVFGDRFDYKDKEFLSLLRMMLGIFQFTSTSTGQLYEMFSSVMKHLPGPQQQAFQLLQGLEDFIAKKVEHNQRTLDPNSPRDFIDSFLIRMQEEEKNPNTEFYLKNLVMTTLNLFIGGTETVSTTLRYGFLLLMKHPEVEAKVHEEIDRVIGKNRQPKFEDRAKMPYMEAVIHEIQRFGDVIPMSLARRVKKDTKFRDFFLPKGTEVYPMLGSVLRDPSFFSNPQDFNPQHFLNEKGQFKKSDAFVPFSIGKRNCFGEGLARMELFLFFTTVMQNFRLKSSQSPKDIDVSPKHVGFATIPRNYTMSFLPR
Chain of CYP2C19 (P33261 whole entry): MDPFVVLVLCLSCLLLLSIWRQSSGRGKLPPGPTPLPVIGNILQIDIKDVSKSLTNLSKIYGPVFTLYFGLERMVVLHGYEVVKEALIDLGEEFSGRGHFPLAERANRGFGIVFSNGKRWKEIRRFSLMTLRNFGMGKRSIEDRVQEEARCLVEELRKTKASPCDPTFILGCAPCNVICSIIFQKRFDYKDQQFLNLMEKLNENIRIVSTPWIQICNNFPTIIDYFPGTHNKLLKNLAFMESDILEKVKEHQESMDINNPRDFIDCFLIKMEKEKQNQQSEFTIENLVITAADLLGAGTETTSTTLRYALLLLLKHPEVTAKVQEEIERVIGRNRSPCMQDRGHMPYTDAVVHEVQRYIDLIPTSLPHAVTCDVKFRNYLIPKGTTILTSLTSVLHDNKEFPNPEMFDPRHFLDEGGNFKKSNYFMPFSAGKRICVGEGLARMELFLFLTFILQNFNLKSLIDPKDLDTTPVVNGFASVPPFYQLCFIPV
T1 sequence (Q12809 whole entry): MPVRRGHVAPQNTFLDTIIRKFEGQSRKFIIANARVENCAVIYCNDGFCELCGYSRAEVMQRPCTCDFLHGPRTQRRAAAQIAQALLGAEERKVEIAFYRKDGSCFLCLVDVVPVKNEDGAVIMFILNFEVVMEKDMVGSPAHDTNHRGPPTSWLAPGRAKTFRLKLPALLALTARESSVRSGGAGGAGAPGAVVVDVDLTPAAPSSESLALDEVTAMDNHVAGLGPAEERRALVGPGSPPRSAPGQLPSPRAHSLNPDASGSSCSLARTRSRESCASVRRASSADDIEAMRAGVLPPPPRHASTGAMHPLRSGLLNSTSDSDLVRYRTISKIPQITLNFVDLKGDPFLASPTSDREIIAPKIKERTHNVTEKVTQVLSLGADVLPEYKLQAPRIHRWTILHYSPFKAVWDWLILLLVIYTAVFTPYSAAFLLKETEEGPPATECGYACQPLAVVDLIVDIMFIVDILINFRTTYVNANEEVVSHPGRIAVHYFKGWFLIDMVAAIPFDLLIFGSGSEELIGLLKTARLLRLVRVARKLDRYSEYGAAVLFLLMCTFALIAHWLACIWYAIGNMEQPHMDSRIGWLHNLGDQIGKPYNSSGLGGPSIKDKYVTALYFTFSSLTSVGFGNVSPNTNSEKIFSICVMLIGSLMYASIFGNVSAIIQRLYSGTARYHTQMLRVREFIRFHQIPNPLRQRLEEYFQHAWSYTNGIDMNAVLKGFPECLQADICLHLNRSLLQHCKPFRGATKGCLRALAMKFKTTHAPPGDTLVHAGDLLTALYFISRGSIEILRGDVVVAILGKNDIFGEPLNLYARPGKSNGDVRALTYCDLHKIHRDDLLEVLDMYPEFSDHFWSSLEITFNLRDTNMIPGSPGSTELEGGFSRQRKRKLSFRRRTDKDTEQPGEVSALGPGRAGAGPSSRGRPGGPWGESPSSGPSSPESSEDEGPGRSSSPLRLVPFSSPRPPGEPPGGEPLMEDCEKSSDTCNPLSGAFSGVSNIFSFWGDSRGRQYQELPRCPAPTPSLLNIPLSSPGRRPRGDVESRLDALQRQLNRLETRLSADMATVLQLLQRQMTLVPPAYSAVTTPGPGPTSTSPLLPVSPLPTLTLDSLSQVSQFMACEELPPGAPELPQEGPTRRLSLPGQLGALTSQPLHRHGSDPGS
Chain of CYP3A4 (P08684 whole entry): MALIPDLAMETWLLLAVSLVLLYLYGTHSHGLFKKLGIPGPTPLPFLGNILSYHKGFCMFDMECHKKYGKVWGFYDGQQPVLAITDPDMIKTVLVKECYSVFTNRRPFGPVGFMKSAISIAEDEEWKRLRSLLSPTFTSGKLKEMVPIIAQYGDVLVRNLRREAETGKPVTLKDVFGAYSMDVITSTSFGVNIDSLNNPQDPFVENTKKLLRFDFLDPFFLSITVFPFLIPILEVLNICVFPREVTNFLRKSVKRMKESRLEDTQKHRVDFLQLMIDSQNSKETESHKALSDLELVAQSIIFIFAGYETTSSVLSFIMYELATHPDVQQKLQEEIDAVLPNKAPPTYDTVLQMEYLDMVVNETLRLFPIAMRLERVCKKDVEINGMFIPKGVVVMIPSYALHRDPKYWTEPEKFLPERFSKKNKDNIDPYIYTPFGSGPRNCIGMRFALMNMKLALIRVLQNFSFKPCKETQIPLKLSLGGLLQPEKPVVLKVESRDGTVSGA
Chain of Aurora-A (O14965 whole entry): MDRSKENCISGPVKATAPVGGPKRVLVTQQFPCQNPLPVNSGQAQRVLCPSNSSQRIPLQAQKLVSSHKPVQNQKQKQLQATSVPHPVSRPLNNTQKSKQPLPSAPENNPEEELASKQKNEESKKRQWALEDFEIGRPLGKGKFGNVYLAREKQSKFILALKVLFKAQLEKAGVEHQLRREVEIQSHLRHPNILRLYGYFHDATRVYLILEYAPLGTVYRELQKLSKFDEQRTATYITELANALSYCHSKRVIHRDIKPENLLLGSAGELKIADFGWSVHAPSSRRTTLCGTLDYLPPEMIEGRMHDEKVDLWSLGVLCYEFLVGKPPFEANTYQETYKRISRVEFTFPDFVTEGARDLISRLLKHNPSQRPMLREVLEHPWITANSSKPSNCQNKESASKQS
Chain of CYP2D6 (P10635 whole entry): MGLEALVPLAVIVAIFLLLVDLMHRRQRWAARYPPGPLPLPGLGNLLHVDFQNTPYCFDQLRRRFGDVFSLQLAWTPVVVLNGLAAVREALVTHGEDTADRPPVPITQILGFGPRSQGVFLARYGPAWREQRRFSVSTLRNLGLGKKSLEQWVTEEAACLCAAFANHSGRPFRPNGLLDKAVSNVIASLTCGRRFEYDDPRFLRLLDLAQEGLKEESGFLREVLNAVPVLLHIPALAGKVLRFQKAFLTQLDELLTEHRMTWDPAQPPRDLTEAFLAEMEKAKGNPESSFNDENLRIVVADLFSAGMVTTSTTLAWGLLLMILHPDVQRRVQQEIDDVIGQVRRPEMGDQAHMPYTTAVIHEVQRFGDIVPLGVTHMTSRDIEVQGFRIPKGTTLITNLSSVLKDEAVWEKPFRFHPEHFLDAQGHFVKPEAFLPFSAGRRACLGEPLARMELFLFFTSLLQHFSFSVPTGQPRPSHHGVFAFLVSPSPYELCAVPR
Chain of CYP2C9 (P11712 whole entry): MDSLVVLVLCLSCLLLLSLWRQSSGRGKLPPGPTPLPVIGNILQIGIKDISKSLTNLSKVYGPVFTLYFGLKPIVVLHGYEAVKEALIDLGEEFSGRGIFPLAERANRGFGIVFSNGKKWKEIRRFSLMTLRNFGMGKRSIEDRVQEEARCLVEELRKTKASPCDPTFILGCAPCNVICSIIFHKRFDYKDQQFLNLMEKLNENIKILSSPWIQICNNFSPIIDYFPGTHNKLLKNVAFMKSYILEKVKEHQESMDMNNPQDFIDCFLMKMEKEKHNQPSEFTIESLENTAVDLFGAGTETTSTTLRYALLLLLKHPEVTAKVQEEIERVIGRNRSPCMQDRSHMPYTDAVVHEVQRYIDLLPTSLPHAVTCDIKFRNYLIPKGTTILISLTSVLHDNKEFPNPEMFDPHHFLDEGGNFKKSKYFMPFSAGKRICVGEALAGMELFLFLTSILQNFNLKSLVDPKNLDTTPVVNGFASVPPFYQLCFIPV
Chain of Aurora-B (Q96GD4 whole entry): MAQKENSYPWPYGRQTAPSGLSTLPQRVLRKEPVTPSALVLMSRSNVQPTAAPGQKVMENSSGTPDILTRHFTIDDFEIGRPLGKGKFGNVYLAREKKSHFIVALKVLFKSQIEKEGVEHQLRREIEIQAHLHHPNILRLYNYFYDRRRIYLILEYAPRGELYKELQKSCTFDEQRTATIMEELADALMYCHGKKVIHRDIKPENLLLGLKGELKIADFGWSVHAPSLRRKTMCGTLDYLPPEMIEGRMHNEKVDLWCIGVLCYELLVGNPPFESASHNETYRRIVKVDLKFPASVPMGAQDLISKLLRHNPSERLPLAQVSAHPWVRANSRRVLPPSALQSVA
Chain of CYP1A2 (P05177 whole entry): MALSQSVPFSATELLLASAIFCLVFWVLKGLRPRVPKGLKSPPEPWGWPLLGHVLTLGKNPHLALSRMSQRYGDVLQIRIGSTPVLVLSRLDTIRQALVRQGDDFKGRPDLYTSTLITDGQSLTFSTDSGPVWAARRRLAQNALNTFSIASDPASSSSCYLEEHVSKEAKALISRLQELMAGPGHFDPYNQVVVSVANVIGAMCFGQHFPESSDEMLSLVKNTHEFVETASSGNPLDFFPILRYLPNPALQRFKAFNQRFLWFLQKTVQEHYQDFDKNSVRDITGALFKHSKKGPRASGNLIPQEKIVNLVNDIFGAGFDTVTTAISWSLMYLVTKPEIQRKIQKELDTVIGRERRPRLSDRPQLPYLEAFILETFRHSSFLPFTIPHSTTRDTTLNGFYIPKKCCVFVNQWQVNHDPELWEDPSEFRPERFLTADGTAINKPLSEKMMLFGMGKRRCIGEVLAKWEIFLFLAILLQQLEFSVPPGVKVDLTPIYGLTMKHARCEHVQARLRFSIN

`Cc1cc(CN2CCN(c3c(Br)cnc4nc(-c5ccc(N6CCN(C)CC6)cc5)[nH]c34)CC2)no1` [CCT137690, reference compound]: the “growth of a SW620 human colon carcinoma xenograft in vivo” value in data set [1] is “inhibits the growth”. Moreover, the “HLM: Percentage of parent compound metabolised” value (“HLM: Percentage” for short) in data set [2] is reported as 86%.

As to `Cn1cc(-c2nc3c(N4CCN(Cc5cccnc5)CC4)c(Br)cnc3[nH]2)cn1` [Comparator 1, 6-bromo-2-(1-methyl-1H-pyrazol-4-yl)-7-(4-(pyridine-3-ylmethyl)piperazin-1-yl)-3H-imidazo[4,5-b]pyridine], the negative-log IC50 (pIC50) – broadly, −log10 of the IC50, conventionally taken in molar units – is 4.30 to 5.00 in data set [3]; below 4.30 in [4]; 5.26 in [5]; 7.49 in data set [6]; 5.00 to 6.00 in data set [7]; 4.30 to 5.00 in data set [8]. The pIC50 in [9] is above 6.00; in data set [10], 4.30 to 5.00.

In the case of `Cc1nn(C)c(C)c1-c1nc2c(N3CCN(Cc4cccnc4)CC3)c(Br)cnc2[nH]1` [Comparator 2, 6-bromo-7-(4-(pyridine-3-ylmethyl)piperazin-1-yl)-2-(1,3,5-trimethyl-1H-pyrazol-4-yl)-3H-imidazo[4,5-b]pyridine], the negative logarithm of the IC50 (pIC50) in data set [3] was 4.30 to 5.00; in data set [4] it was below 4.30; in data set [5], 4.97; in data set [6], 6.52; in data set [7], 4.30 to 5.00; in data set [8], 4.30 to 5.00. The negative-log IC50 (pIC50) in data set [9] is above 6.00.

With `Cc1nn(C)cc1-c1nc2c(N3CCN(Cc4ccc(Cl)cc4)CC3)c(Cl)cnc2[nH]1` [Example 1, 6-Chloro-7-(4-(4-chlorobenzyl)piperazin-1-yl)-2-(1,3-dimethyl-1H-pyrazol-4-yl)-3H-imidazo[4,5-b]pyridine], the STAT5 phosphorylation entry in data set [11] is listed as “inhibition of STAT5 phosphorylation”. In data set [12], the “competition for FLT3-ITD” value was “greater than 94%”. In addition, halving of growth in data set [13] (GI50) required 0.3 µM. In addition, the Vd (commonly the apparent volume that relates the amount in the body to the concentration in plasma or blood) in [14] (female, Balb/C, plasma, 5 mg/kg) is 0.066 L and ~3.3 L/kg. Moreover, the clearance (commonly a measure of how efficiently the substance is removed, as volume per time) in data set [14] (female, Balb/C, plasma, iv, 5 mg/kg) was 0.967 mL/min. The “AUCinf, (iv)” value in [14] (iv 5 mg/kg) came out at 3.753 µM·h. In data set [14] (iv 5 mg/kg), the “Cl, (iv)” value is 0.058 L/h. In data set [14] (iv 5 mg/kg), the “t½, (iv)” value was 50.4 min. In data set [14] (oral 5 mg/kg), the “F % (po)” value was 100%. In addition, the “MLM: Percentage of parent compound metabolised” value (from here on “MLM: Percentage”) in data set [15] is 34%. In addition, in data set [16], the “hits from the 386 non-mutant kinases tested” value was determined as 22. Moreover, the “competition for FLT3(D835Y)” value in data set [17] is reported as “greater than 94%”. The pIC50 in [4] was below 4.30; in [5] it was below 4.60; in data set [9], below 4.30. In addition, in data set [18], the “competition for FLT3 kinase” value was “greater than 94%”. In data set [19], the remaining binding at 1 µM stood at 1%. Besides, in data set [20], the “competition for FLT3(D835H)” value is “greater than 94%”. The LogD7.4 entry in [21] is listed as “^cLogD7.4 = 3.84 (experimentally determined value)”. For the same compound, the “day single mice were culled (mean tumour volume increased by over 500%)” value in data set [22] (50 mg/kg) is 28 days and 31 days; in data set [22] (100 mg/kg), 46 days and 56 days. The “tumour volume, % of the initial volume after 11 days” value in data set [22] (50 mg/kg dosing schedule) was 42%. The “tumours when therapy was discontinued after 11 days” value in data set [22] (100 mg/kg dosing schedule) is on record as “undetectable”. Besides, the “toxicity as defined by body weight loss” value in data set [22] (athymic mice, oral 50 and 100 mg/kg) was “no observed toxicity”. In data set [22] (athymic mice, oral 50 and 100 mg/kg, dose dependent), the “growth of MV4-11 human tumour xenografts” value was “strongly inhibited the growth”. In addition, the “mice that failed to develop progressively growing tumours” value in data set [22] (each treatment group (50 and 100 mg/kg), study terminated on day 60) is 60%. In addition, in [2], the “HLM: Percentage” value amounted to 10%. Besides, in [23], the “histone H-3 phosphorylation” value is on record as “clear inhibition”.

As for `Cc1nn(C)cc1-c1nc2c(N3CCN(Cc4ncon4)CC3)c(Cl)cnc2[nH]1` [Example 2, 3-((4-(6-Chloro-2-(1,3-dimethyl-1H-pyrazol-4-yl)-3H-imidazo[4,5-b]pyridin-7-yl)piperazin-1-yl)methyl)-1,2,4-oxadiazole], the “MLM: Percentage” value in data set [15] is reported as 67%. In addition, the “HLM: Percentage” value in data set [2] was 22%. Besides, the pIC50 in data set [9] is below 4.30.

Regarding `Cc1nc(CN2CCN(c3c(Cl)cnc4[nH]c(-c5cn(C)nc5C)nc34)CC2)no1` [Example 3, 3-((4-(6-Chloro-2-(1,3-dimethyl-1H-pyrazol-4-yl)-3H-imidazo[4,5-b]pyridin-7-yl)piperazin-1-yl)methyl)-5-methyl-1,2,4-oxadiazole], the negative-log IC50 (pIC50) in data set [24] is 5.02; in data set [4], below 4.30; in data set [8] it was below 4.30; in [9] it was below 4.30. Further, the “MLM: Percentage” value in [15] is 58%. Also, in [2], the “HLM: Percentage” value stood at 20%.
